Experimental data as given in patent publication US7115658B2 (priority 2002, dated 2006).

Target: T1, Recombinant HCV polymerase (Hepatitis C virus genotype 1b, UniProt P26663)
T1 construct: 2.5 pmoles (0.15 μg) HCV polymerase protein
Test: HCV Polymerase Inhibition Assay
Type: biochemical
Settings: primer/template-directed transcription, 30 minutes at 30° C.; category symbol
Method: The above-described compounds were tested for activity with HCV polymerase. Recombinant HCV polymerase was tested for its ability to perform primer/template-directed transcription in assays that contained 30 mM tris-HCl pH 7.2, 10 mM MgCl2, 20 mM NaCl, 1 mM Dithiothreitol (DTT), 0.05% Tween-20, 1% glycerol, 5 pmoles biotin-dG12 (primer), 0.5 pmoles poly(rC)300 (template), 1 μM GTP, 0.1–0.3 uCi α-^32P-GTP, and 2.5 pmoles (0.15 μg) HCV polymerase protein in a final volume of 75 μL. Reactions were initiated by addition of enzyme and incubated 30 minutes at 30° C. Reactions were stopped by addition of 33 mM EDTA, and polynucleotide products were collected by filtration through Diethylaminoethyl (DE) Filtermat papers (Wallac). Unincorporated triphosphate was removed by washing the filters with 5% dibasic sodium phosphate. The filters were counted in a Packard Tri-Lux Microbeta scintillation counter (Packard Bioscience, Meriden, Conn.). Compounds to be tested were added at various concentrations, e.g., 1 μm to 50 μm, from stocks in 10% DMSO-water (final DMSO is 1% in reaction).
IC50 values were estimated from the primary cpm data (collected in triplicate) using the formula: cpm (I)=cpm (no inhibitor)(1−([I]/([I]+IC50))). An IC50 value represents the concentration (in μM) of a compound that provides 50% inhibition of polymerase-directed transcription in the above assay. A percent inhibition value is expressed for a compound where it was impractical to calculate an IC50 value with available data. If the IC50 estimated by the above equation was less than 200 nM, it was recalculated using the following equation, which takes into account the enzyme concentration (30 nM) in the assay: cpm(I)=cpm(no inhibitor)(1−((((I+IC50+30e−9)−sqrt(((I+IC50+30e−9)^2)−4×30e−9×I)))/((2) (30e−9))). Curve fitting was performed using the program KaleidaGraph (Synergy Software, Reading, Pa.).

T1 sequence (P26663 2420-3010): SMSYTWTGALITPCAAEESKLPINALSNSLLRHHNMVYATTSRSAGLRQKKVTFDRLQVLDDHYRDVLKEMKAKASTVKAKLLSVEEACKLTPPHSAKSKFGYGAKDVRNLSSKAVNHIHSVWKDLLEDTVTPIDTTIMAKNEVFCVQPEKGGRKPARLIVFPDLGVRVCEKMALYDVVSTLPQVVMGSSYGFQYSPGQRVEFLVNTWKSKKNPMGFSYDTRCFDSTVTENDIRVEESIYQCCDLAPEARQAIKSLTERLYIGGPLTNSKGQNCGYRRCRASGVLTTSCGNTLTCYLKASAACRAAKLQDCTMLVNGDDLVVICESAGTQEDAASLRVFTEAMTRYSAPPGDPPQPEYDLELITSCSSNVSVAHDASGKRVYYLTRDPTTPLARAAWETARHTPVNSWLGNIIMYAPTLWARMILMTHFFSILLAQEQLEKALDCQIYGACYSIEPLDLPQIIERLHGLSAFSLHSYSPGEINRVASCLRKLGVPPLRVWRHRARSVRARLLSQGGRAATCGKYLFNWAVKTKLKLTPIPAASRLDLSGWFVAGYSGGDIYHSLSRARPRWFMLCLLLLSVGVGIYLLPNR

Compound | IC50 [µM]
Cc1cc(SC2=C(O)CC(CCC(C)C)(C3CCCC3)OC2=O)c(C(C)(C)C)cc1CO (stereo not shown) [Example 144, 3-(2-tert-butyl-4-hydroxymethyl-5-methyl-phenylsulfanyl)-6-cyclopentyl-4-hydroxy-6-(3-methyl-butyl)-5,6-dihydro-pyran-2-one] | > 50
O=C1OC(CCc2ccc(O)cc2)(C2CCCC2)CC(O)=C1Sc1cccc2ccccc12 (stereo not shown) [Example 85, 6-Cyclopentyl-4-hydroxy-6-[2-(4-hydroxyphenyl)ethyl]-3-(naphthalen-1-ylsulfanyl)-5,6-dihydropyran-2-one] | 1 to 10
O=C1CC(CCc2ccccc2)(C2CCCC2)OC(=O)C1Cc1ccccc1 (stereo not shown) [Example 88, 3-benzyl-6-cyclopentyl-6-(2-phenylethyl)dihydro-2H-pyran-2,4(3H)-dione] | 10 to 50
COc1cc(OC)c(CCC2(C3CCCC3)CC(O)=C(Sc3ccc(C(=O)O)cn3)C(=O)O2)cc1Cl (stereo not shown) [Example 94, 6-({6-[2-(5-chloro-2,4-dimethoxyphenyl)ethyl]-6-cyclopentyl-4-hydroxy-2-oxo-5,6-dihydro-2H-pyran-3-yl}thio)nicotinic acid] | < 1
O=C1CC(=O)OC(CCc2nccs2)(C2CCCC2)C1 (stereo not shown) [Example 12, 6-Cyclopentyl-6-(2-thiazol-2-yl-ethyl)-dihydro-pyran-2,4-dione] | > 50
COc1ccc(CCC2(C3CCCC3)CC(=O)C(C(C)=O)C(=O)O2)c(OC)c1 (stereo not shown) [Example 166, 3-Acetyl-6-cyclopentyl-6-[2-(2,4-dimethoxy-phenyl)-ethyl]-dihydro-pyran-2,4-dione] | 10 to 50
Cc1cc(SC2=C(O)CC(C)(C)OC2=O)c(C(C)(C)C)cc1N [Example 89, 3-[(4-amino-2-tert-butyl-5-methylphenyl)thio]-4-hydroxy-6,6-dimethyl-5,6-dihydro-2H-pyran-2-one] | > 50
CCCc1ccc(CCC2(C3CCCC3)CC(=O)CC(=O)O2)cc1 (stereo not shown) [Example 55] | 1 to 10
COc1ccc(CCC2(C3CCCC3)CC(O)=C(Sc3nnc(O)n3C)C(=O)O2)cc1 (stereo not shown) [Example 117, 6-Cyclopentyl-4-hydroxy-3-[(5-hydroxy-4-methyl-4H-1,2,4-triazol-3-yl)thio]-6-[2-(4-methoxyphenyl)ethyl]-5,6-dihydro-2H-pyran-2-one] | 1 to 10
Cc1cc(CCC2(C3CCCC3)CC(O)=CC(=O)O2)ccc1C1(C)OCCO1 (stereo not shown) [Example 18, 6-Cyclopentyl-4-hydroxy-6-{2-[3-methyl-4-(2-methyl-1,3-dioxolan-2-yl)-phenyl]-ethyl}-5,6-dihydro-pyran-2-one] | 1 to 10
COc1cccc(CCC2(C3CCCC3)CC(O)=CC(=O)O2)c1 (stereo not shown) [Example 16, 6-Cyclopentyl-4-hydroxy-6-[2-(3-methoxy-phenyl)-ethyl]-5,6-dihydropyran-2-one] | 10 to 50
CC(=O)c1ccc(CCC2(C3CCCC3)CC(O)=CC(=O)O2)cc1C (stereo not shown) [Example 17, 6-[2-(4-Acetyl-3-methyl-phenyl)-ethyl]-6cyclopentyl-4-hydroxy-5,6-dihydro-pyran-2-one] | 1 to 10
COc1ccc(CCC2(C3CCCC3)CC(O)=C(Sc3ccc(O)cc3)C(=O)O2)cc1Cl (stereo not shown) [Example 126, 6-[2-(3-Chloro-4-methoxy-phenyl)-ethyl]-6-cyclopentyl-4-hydroxy-3-(4-hydroxy-phenylsulfanyl)-5,6-dihydro-pyran-2-one] | < 1
6-[2-(3-Chloro-4-isopropoxy-phenyl)-ethyl]-6-cyclopentyl-4-hydroxy-3-(thiazol-2-ylsulfanyl)-5,6-dihydro-pyran-2-one [Example 132] | < 1
COc1ccc(CCC2(C3CCCC3)CC(O)=C(Cl)C(=O)O2)cc1 (stereo not shown) [Example 87, 3-Chloro-6-cyclopentyl-4-hydroxy-6-[2-(4-methoxyphenyl)ethyl]-5,6-dihydropyran-2-one] | 10 to 50
COc1ccc(CCC2(C3CCCC3)CC(=O)CC(=O)O2)cc1Cl (stereo not shown) [Example 27, 6-[2-(3-Chloro-4-methoxy-phenyl)-ethyl]-6-cyclopentyl-dihydro-pyran-2,4-dione] | 1 to 10
6-[2-(3-Chloro-4-isopropoxy-phenyl)-ethyl]-6-cyclopentyl-4-hydroxy-3-(4-hydroxy-phenylsulfanyl)-5,6-dihydro-pyran-2-one [Example 130] | < 1
O=C1CC(=O)OC(CCc2ccc(C(=O)N3CC[C@H](O)C3)cc2)(C2CCCC2)C1 (stereo in doubt) [Example 69, 6-Cyclopentyl-6-{2-[4-(3-hydroxy-pyrrolidine-1-carbonyl)-phenyl]-ethyl}-dihydro-pyran-2,4-dione] | 10 to 50
COc1ccc(CCC2(C3CCCC3)CC(=O)CC(=O)O2)cc1C (stereo not shown) [Example 29, 6-Cyclopentyl-6-[2-(4-methoxy-3-methyl-phenyl)-ethyl]-dihydro-pyran-2,4-dione] | 1 to 10
COc1ccc(CCC2(C3CCCC3)CC(O)=C(Sc3nnnn3CCN(C)C)C(=O)O2)cc1 (stereo not shown) [Example 116, 6-Cyclopentyl-3-({1-[2-(dimethylamino)ethyl]-1H-tetraazol-5-yl}thio)-4-hydroxy-6-[2-(4-methoxyphenyl)ethyl]-5,6-dihydro-2H-pyran-2-one] | 1 to 10
COc1ccc(CCC2(C3CCCC3)CC(O)=C(Sc3nc4nc(C)cc(C)n4n3)C(=O)O2)cc1Cl (stereo not shown) [Example 101, 6-[2-(3-Chloro-4-methoxy-phenyl)-ethyl]-6-cyclopentyl-3-(5,7-dimethyl-[1,2,4]triazolo[1,5-a]pyrimidin-2-ylsulfanyl)-4-hydroxy-5,6-dihydro-pyran-2-one] | < 1
CC(C)(C)OC(=O)NCC(C)(C)c1cccc(CCC2(C3CCCC3)CC(=O)CC(=O)O2)c1 (stereo not shown) [Example 14, (2-{3-[2-(2-Cyclopentyl-4,6-dioxo-tetrahydro-pyran-2-yl)-ethyl]-phenyl}-2-methyl-propyl)-carbamic acid tert-butyl ester] | 10 to 50
O=C1CC(=O)OC(CCc2ccc(OCC3CC3)c(F)c2)(C2CCCC2)C1 (stereo not shown) [Example 57, 6-Cyclopentyl-6-[2-(4-cyclopropylmethoxy-3-fluoro-phenyl)-ethyl]-dihydro-pyran-2,4-dione] | 1 to 10
O=C1O[C@](CCc2cccc(O)c2)(C2CCCC2)CC(O)=C1N(c1ccccc1)c1ccccc1 [Example 156, (S)-6-Cyclopentyl-3-diphenylamino-4-hydroxy-6-[2-(3-hydroxy-phenyl)-ethyl]-5,6-dihydro-pyran-2-one] | 10 to 50
CC(=O)Nc1cc(C(C)(C)C)c(SC2=C(O)CC(CCc3ccc(O)cc3)(C3CCCC3)OC2=O)cc1C (racemic) [Example 140, (+/−)N-(5-tert-butyl-4-{6-cyclopentyl-4-hydroxy-6-[2-(4-hydroxy-phenyl)-ethyl]-2-oxo-5,6-dihydro-2H-pyran-3-ylsulfanyl}-2-methyl-phenyl)-acetamide] | 1 to 10
O=C1CC(=O)OC(CCc2cccc(Cl)c2)(C2CCCC2)C1 (stereo not shown) [Example 26, 6-[2-(3-Chloro-phenyl)-ethyl]-6-cyclopentyl-dihydro-pyran-2,4-dione] | 1 to 10
COc1cc(OC)c(CCC2(C3CCCC3)CC(O)=C(Cl)C(=O)O2)cc1Cl (stereo not shown) [Example 90] | < 1
COc1cc(OC)c(CCC2(C3CCCC3)CC(O)=C(Sc3ncc(CO)n3C)C(=O)O2)cc1Cl (stereo not shown) [Example 98, 6-[2-(5-chloro-2,4-dimethoxyphenyl)ethyl]-6-cyclopentyl-4-hydroxy-3-([5-(hydroxymethyl)-1-methyl-1H-imidazol-2-yl]thio)-5,6-dihydro-2H-pyran-2-one] | < 1
